Source: patent publication US9359311B2, “Substituted aromatic oligomers” (NEUROSCIOS GMBH, priority 2011, dated 2016)
Entries after “also recorded” stand apart in the source; their conditions may differ.

Assays:
[1] = target: T1, Human Aβ38, Aβ40 and Aβ42 (Homo sapiens, UniProt P05067); assay: Human Aβ38, Aβ40 and Aβ42 in SDS brain homogenate fraction of hAPPSL Tg mice after 90 days treatment; format: in vivo, mouse; conditions: twice daily i.p., p-FTAA 1 or 10 mg/kg/day, P9707_003 10 mg/kg/day
T1 construct: from tissue; host or cells: CSF and left brain hemisphere (SDS fraction) of transgenic hAPPSL mice
Method: (§1) Vehicle: Phosphate Buffered Saline (PBS; 6.7 mM PO4, 155 mM NaCl, pH=7.3-7.5) (BioWhittaker PBS from Lonza).
(§2) Test item (T.I.): p-FTAA and P9707_003 diluted in vehicle from stock solution in deionized water (10 mg/ml).
(§3) Tg hAPPSL: Transgenic hAPPSL mice over-expressing hAPP(751) under the control of the murine Thy-1 promoter with a C57BL/6xDBA background.
(§4) Human Aβ38, Aβ40 and Aβ42 were determined in homogenates of the left brain hemispheres and in CSF samples of all Tg animals by an immunosorbent assay from Mesoscale Discovery
48 hAPP Tg mice plus 4 reserves allocated to 4 different treatment groups were treated with either vehicle only (control), p-FTAA or P9707_003. As an additional control, 12 nTg littermates of the hAPPSL mice (plus 1 reserve) were treated with vehicle only. Starting at 6.5 months of age, female hAPPSL mice were treated with vehicle only, p-FTAA (dosage: 1 or 10 mg/kg/day) or P9707_003 (dosage: 10 mg/kg/day) for 90 days. […]
(§5) In the brain homogenate SDS fraction and in CSF of each Tg mouse, human Aβ38, Aβ40 and Aβ42 levels were measured with a Aβ-kit from Mesoscale Discovery. Aβ levels were evaluated in comparison to a peptide standard as pg/mg brain (wet weight) or pg/ml CSF.
Descriptive statistical analysis was performed on all evaluated parameters. […] Group differences between all Tg groups were calculated by a parametric ANOVA followed by a Bonferroni post test.

[2] = target: T1, Human Aβ38, Aβ40 and Aβ42; assay: Human Aβ38, Aβ40 and Aβ42 in CSF of hAPPSL Tg mice after 90 days treatment (immunosorbent assay); format: in vivo, mouse; conditions: twice daily i.p.
Method: as §1, §2, §3, §4
48 hAPP Tg mice plus 4 reserves allocated to 4 different treatment groups were treated with either vehicle only (control), p-FTAA or P9707_003. As an additional control, 12 nTg littermates of the hAPPSL mice (plus 1 reserve) were treated with vehicle only. Starting at 6.5 months of age, female hAPPSL mice were treated with vehicle only, p-FTAA (dosage: 1 or 10 mg/kg/day) or P9707_003 (dosage: 10 mg/kg/day) for 90 days. The Test Items (T.I.s) were administered in Vehicle. Compound and vehicle were administered twice daily i.p. for 90 days. Tg hAPPSL mice with a C57BL/6xDBA background and corresponding nTg littermates at an age of 6.5 months (±2 weeks) were randomly assigned to the treatment groups.
as §5
Descriptive statistical analysis was performed on all evaluated parameters. All data were represented as mean±standard error of mean (SEM). Grubb's test was used to detect outliers. Normality distribution of the values was tested with Kolmogorov Smirnov normality distribution test. Group differences between all Tg groups were calculated by a parametric ANOVA followed by a Bonferroni post test.

biotinylated Aβ1-42 = target: T2, biotinylated Aβ1-42 (Homo sapiens, UniProt P05067); assay: Inhibition of Abeta oligomerisation (biotinylated Aβ1-42, neutravidin plate, streptavidin-HRP); format: biochemical; conditions: inhibition of Aβ1-42 aggregation, approximately 12 nM Aβ1-42, PBS pH 7.4, 2% DMSO, 30 min RT
T2 construct: To assure monomerisation of biotinylated Aβ1-42 (Anaspec #23523-0.5) the peptide was thoroughly monomerised; purchased Anaspec 23523-0.5
T2 sequence (P05067 672-713 limits assumed): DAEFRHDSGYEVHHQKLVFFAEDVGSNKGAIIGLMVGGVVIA

T1 sequence (P05067 672-713 limits assumed): as above

O=C(O)Cc1ccsc1-c1ccc(-c2sc(-c3ccc(-c4cc(CC(=O)O)c(-c5ccc(-c6sccc6CC(=O)O)s5)s4)s3)cc2CC(=O)O)s1 [Example 1, 2-(2-{5-[3-(Carboxymethyl)-5-{5-[4-(carboxymethyl)-5-{5-[3-(carboxymethyl)thiophen-2-yl]thiophen-2-yl}thiophen-2-yl]thiophen-2-yl}thiophen-2-yl]thiophen-2-yl}thiophen-3-yl)acetic acid]
aggregated Aβ38, Aβ40 and Aβ42 in SDS fraction of brain homogenate [1]: significant decrease; also recorded: reduced | Mean Aβ levels in CSF, relative to vehicle control (PBS control) ([2]; 10 mg/kg/day, female hAPPSL Tg mice, Aβ38, Aβ40, Aβ42, % of vehicle control): about 60% | CSF Aβ levels ([2]; hAPPSL Tg mice, p-FTAA 1 or 10 mg/kg/day, P9707_003 10 mg/kg/day): decreased | IC50 (biotinylated Aβ1-42): 794 nM
